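Briefly, cells in 96-well plates were exposed to five compound concentrations for 48 h, and endpoints were estimated by linear interpolation. Abbreviation: GI50, concentration required for 50% inhibition of growth. At the TGI there is no net growth.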
What was measured:
Assay in all cases: inhibition of tumour cell growth, NCI panel, 48 h
HL-60(TB) leukemia = tested on: HL-60(TB) leukemia
NCI-H226 lung = tested on: NCI-H226 lung
NCI-H23 lung = tested on: NCI-H23 lung
DU-145 prostate = tested on: DU-145 prostate
SF-268 CNS = tested on: SF-268 CNS
RXF 393 renal = tested on: RXF 393 renal
CCRF-CEM leukemia = tested on: CCRF-CEM leukemia
A549 NSCLC = tested on: A549 NSCLC
SK-MEL-5 melanoma = tested on: SK-MEL-5 melanoma
LOX IMVI melanoma = tested on: LOX IMVI melanoma
HT29 colon = tested on: HT29 colon
SK-OV-3 ovarian = tested on: SK-OV-3 ovarian
SNB-75 CNS = tested on: SNB-75 CNS
NCI-H522 lung = tested on: NCI-H522 lung
SNB-19 CNS = tested on: SNB-19 CNS
ACHN renal = tested on: ACHN renal
EKVX NSCLC = tested on: EKVX NSCLC
CAKI-1 renal = tested on: CAKI-1 renal
786-0 renal = tested on: 786-0 renal
M14 melanoma = tested on: M14 melanoma
MCF7 breast = tested on: MCF7 breast
A498 renal = tested on: A498 renal
SK-MEL-28 melanoma = tested on: SK-MEL-28 melanoma
HCT-116 colon = tested on: HCT-116 colon
HCC-2998 colon = tested on: HCC-2998 colon
SR leukemia = tested on: SR leukemia
KM12 colon = tested on: KM12 colon
OVCAR-5 ovarian = tested on: OVCAR-5 ovarian
PC-3 prostate = tested on: PC-3 prostate

O=C1/C(=C/c2cccc(Br)c2)COc2ccc(O)c(O)c21
TGI (HL-60(TB) leukemia): 4050 nM
GI50 (NCI-H226 lung): 2400 nM
TGI (NCI-H226 lung): 6810 nM
GI50 (NCI-H23 lung): 1740 nM
TGI (NCI-H23 lung): 4250 nM
GI50 (DU-145 prostate): 1420 nM
TGI (DU-145 prostate): 2990 nM
GI50 (SF-268 CNS): 1630 nM
TGI (SF-268 CNS): 4080 nM
GI50 (RXF 393 renal): 1380 nM
TGI (RXF 393 renal): 2840 nM
GI50 (CCRF-CEM leukemia): 312 nM
TGI (CCRF-CEM leukemia): 1690 nM
GI50 (A549 NSCLC): 1830 nM
TGI (A549 NSCLC): 4820 nM
GI50 (SK-MEL-5 melanoma): 1630 nM
TGI (SK-MEL-5 melanoma): 3030 nM
GI50 (LOX IMVI melanoma): 658 nM
TGI (LOX IMVI melanoma): 2040 nM
GI50 (HT29 colon): 1830 nM
TGI (HT29 colon): 3620 nM
GI50 (SK-OV-3 ovarian): 3120 nM
TGI (SK-OV-3 ovarian): 10600 nM
GI50 (SNB-75 CNS): 933 nM
TGI (SNB-75 CNS): 3830 nM
GI50 (NCI-H522 lung): 175 nM
TGI (NCI-H522 lung): 361 nM
GI50 (SNB-19 CNS): 1530 nM
TGI (SNB-19 CNS): 3040 nM
GI50 (ACHN renal): 1240 nM
TGI (ACHN renal): 2500 nM
GI50 (EKVX NSCLC): 1780 nM
TGI (EKVX NSCLC): 3520 nM
GI50 (CAKI-1 renal): 1210 nM
TGI (CAKI-1 renal): 2470 nM
GI50 (786-0 renal): 1460 nM
TGI (786-0 renal): 4100 nM
GI50 (M14 melanoma): 1600 nM
TGI (M14 melanoma): 3470 nM
GI50 (MCF7 breast): 649 nM
TGI (MCF7 breast): 2560 nM
GI50 (A498 renal): 2010 nM
TGI (A498 renal): 4740 nM
GI50 (SK-MEL-28 melanoma): 1750 nM
TGI (SK-MEL-28 melanoma): 3330 nM
GI50 (HCT-116 colon): 1080 nM
TGI (HCT-116 colon): 2470 nM
GI50 (HCC-2998 colon): 1670 nM
TGI (HCC-2998 colon): 3100 nM
GI50 (SR leukemia): 349 nM
TGI (SR leukemia): 2810 nM
GI50 (KM12 colon): 1480 nM
TGI (KM12 colon): 3640 nM
GI50 (OVCAR-5 ovarian): 1930 nM
TGI (OVCAR-5 ovarian): 3740 nM
GI50 (PC-3 prostate): 790 nM
TGI (PC-3 prostate): 3450 nM

Reference: PubChem BioAssay (NCI)
